Data published in patent US5013757A, “Physiologically active substance Tan-931, its derivatives, their production and use” (Takeda Chemical Industries, Ltd., priority 1988, dated 1991).

What was measured:
[1] = target: T1, human placenta aromatase (Homo sapiens, UniProt P11511); assay: In vitro human placenta microsome aromatase inhibitory activity; format: biochemical; settings: androstenedione 4 μM, 37° C., 1 hour
T1 construct: The resulting pellet was used as a microsome fraction; from tissue; host or cells: human placenta, microsome fraction (148,000×g pellet)
T1 sequence (P11511 1-503): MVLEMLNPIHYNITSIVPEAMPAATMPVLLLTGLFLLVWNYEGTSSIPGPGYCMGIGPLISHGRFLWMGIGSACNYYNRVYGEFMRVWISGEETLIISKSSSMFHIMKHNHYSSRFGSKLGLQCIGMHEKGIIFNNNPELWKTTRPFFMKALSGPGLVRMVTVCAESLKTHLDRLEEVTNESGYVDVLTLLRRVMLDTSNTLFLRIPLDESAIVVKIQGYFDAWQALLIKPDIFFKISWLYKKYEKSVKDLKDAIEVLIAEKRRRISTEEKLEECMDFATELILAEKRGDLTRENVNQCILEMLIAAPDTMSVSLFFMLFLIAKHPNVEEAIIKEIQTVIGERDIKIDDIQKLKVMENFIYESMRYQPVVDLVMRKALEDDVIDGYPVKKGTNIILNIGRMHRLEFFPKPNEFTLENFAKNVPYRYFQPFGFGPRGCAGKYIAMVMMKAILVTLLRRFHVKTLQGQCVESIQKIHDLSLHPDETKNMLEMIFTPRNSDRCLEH
Text: (§1) The following Experiments specifically illustrate in vitro human placenta aromatase inhibitory activity and inhibition of estrogen synthesis in the rat by the compounds of the present invention.
Preparation of human placenta microsome
The method of F. A. Thompson et al. [J. Biol. Chem., 249, 5364 (1974)] was partly modified. Namely, the placenta was washed with 0.15 M KCl which was previously cooled to remove the attached membrane and large blood vessels and then sufficiently and finely cut with scissors. To the finely cut tissue was added 2 ml of cold 0.02 M phosphate buffer containing 0.25M sucrose (pH 7.4) per 1 g of the tissue and the mixture was homogenized with Polytron homogenizer (30 second×3, in ice). Then, the mixture was centrifuged at 800×g for 10 minutes and the supernatant was centrifuged at 20,000×g for 30 minutes and further at 148,000×g for 45 minutes. The resulting pellet was used as a microsome fraction. The microsome obtained was suspended in 1 ml of the above phosphate buffer per 10 g of the placenta and stored at -80° C. Upon use, it was diluted 5 to 6 times.
Determination of aromatase activity and inhibitory activity
The method of F. A. Thompson et al. [see above] was partly modified as follows.
A reaction mixture (225 μl ) containing 4-androstene-3,17-dione (4 μM ), 1,2 [^3 H]-androstenedione (140,000 dpm), NADPH (550 μM ) and the above microsome (20 μl ) and a solution containing an inhibitor or not (5 μl ) was incubated at 37° C. for 1 hour. According to this determination, [^3 H]-H2 O was formed by aromatization of androstenedione. Then, the reaction mixture was extracted with chloroform (0.5 ml) to separate layers and the aqueous layer obtained was treated with 5% activated carbon (0.25 ml) to remove the free steroid. After high-speed centrifugation, to the supernatant (0.2 ml) was added scintillator (3 ml) and radioactivity was determined with a liquid scintillation counter. By comparing the result obtained by addition of an inhibitor with that of a control sample wherein the reaction was carried out without addition of any inhibitor, an inhibitory rate (%) was calculated. The effectiveness was expressed by the concentration which was required for inhibiting 50% of the enzyme activity at the substrate (androstenedione) concentration of 4 μM

[2] = test system: various enzymes which pertain to biosynthesis of steroid hormones; settings: background statement; cited from earlier work
[3] = Acute toxicity in mice; settings: mouse, in vivo, sc; subcutaneous, male mice (4 weeks old)
Text: Thus, the compounds (I-1) have a potent aromatase inhibitory activity and, therefore, they can be advantageously used for prevention and treatment of estrogen dependent diseases such as breast cancer, endometriosis, endometrium cancer, benign breast diseases, prostatomegaly and the like as well as for control of conception. Further, toxicity of the compounds (I-1) of the present invention is low.

[4] = test system: estrogen synthesis in rat; assay: In vivo inhibition of estrogen synthesis in PMSG-stimulated young female rats; parameters: species or system SD rats (female, 19 days old)
Protocol: as §1
In vivo inhibition of estrogen synthesis by the compound 1 (TAN-931) was studied by the following experiment.
Five young SD rats (female, 19 days old) were used per one group. The rats of test groups were administered the compound suspended in 0.2% gum arabic-physiological saline solution subcutaneously at the doses of 25, 50 and 100 mg/kg for 4 days at 24-hour intervals. The rats of control groups (Control 1 and 2) were administered 0.2 ml of 0.2% gum arabic-physiological saline solution. After administration of the compound on the third day after initiation of the test, a single dose of 10 U/rat (s.c.) of pregnant mare's serum gonadotropin (PMSG) was administered to the rats of test groups and Control 2. […] After centrifugation, the plasma was obtained and the plasma estradiol-17 β level was determined by radio immunoassay. Further, the uterus and ovarium were removed from the rat, freed from connective tissue and the like and weighed, respectively. As the control compound for estimation of the pharmacological activity, 4-hydroxyandrostenedione (4-OHA) was used.

[5] = Solubility of TAN-931; format: physicochemical
[6] = 25 mg/kg/day s.c., 4 days, PMSG
[7] = 50 mg/kg/day s.c., 4 days, PMSG
[8] = 100 mg/kg/day s.c., 4 days, PMSG

Structure (SMILES)	IC50 [1]	further results
O=Cc1cc(C(=O)N2CCCC2)cc(O)c1C(=O)c1c(O)cccc1O [Compound 12]	23.4 µM	
CCC1(c2ccc(N)cc2)CCC(=O)NC1=O (centres unmarked) [aminoglutethimide]		inhibition of enzymes of steroid hormone biosynthesis [2]: inhibits various enzymes
COc1cc(C(=O)O)cc(C=O)c1C(=O)c1c(O)cccc1O [Compound 15]	24 µM	
O=Cc1cc(C(=O)OCc2ccccc2)cc(O)c1C(=O)c1c(O)cccc1O [Compound 4]	206 µM	
CN(C)CCNC(=O)c1cc(O)c(C(=O)c2c(O)cccc2O)c(C=O)c1 [Compound 14]	16.9 µM	
C=CCNC(=O)c1cc(O)c(C(=O)c2c(O)cccc2O)c(C=O)c1 [Compound 9]	15.2 µM	
Cc1ccc(NC(=O)c2cc(O)c(C(=O)c3c(O)cccc3O)c(C=O)c2)cc1 [Compound 13]	16.1 µM	
O=Cc1cc(C(=O)O)cc(O)c1C(=O)c1c(O)cccc1O [Compound 1]	17.2 µM	LD50 [3]: ≥ 800 mg/kg; Plasma estradiol 17-B level [4, 6]: 312.8 ± 192.4 pg/mL; Tissue weight Ovarium [4, 6]: 24.2 ± 6.2 mg; Tissue weight Uterus [4, 6]: 108.4 ± 15.6 mg; Plasma estradiol 17-B level [4, 7]: 80.8 ± 64.2 pg/mL; Tissue weight Ovarium [4, 7]: 16.4 ± 6.4 mg; Tissue weight Uterus [4, 7]: 89.4 ± 30.8 mg; Plasma estradiol 17-B level [4, 8]: 50.2 ± 23.5 pg/mL; Tissue weight Ovarium [4, 8]: 14.5 ± 1.5 mg; Tissue weight Uterus [4, 8]: 66.3 ± 38.0 mg; blood estrogen level raised by stimulation due to PMSG administration ([4]; result in words): significantly lowered; Solubility ([5]; chloroform, diethyl ether): Slightly soluble; Solubility ([5]; dimethylsulfoxide (DMSO), methanol, ethanol, acetone): Soluble; Solubility ([5]; water, n-hexane): Insoluble
CN(C)C(=O)c1cc(O)c(C(=O)c2c(O)cccc2O)c(C=O)c1 [Compound 7]	14.6 µM	
CCCCCCOC(=O)c1cc(O)c(C(=O)c2c(O)cccc2O)c(C=O)c1 [Compound 5]	32.3 µM	
C[C@]12CCC(=O)C(O)=C1CC[C@@H]1[C@@H]2CC[C@]2(C)C(=O)CC[C@@H]12 [Compound 4-OHA, 4-hydroxyandrostenedione, reference compound]		Plasma estradiol 17-B level [4, 8]: 149.6 ± 76.7 pg/mL; Tissue weight Ovarium [4, 8]: 28.4 ± 7.9 mg; Tissue weight Uterus [4, 8]: 85.9 ± 13.0 mg; Weight gain [4, 8]: 22.2 ± 1.5 g
CC(C)NC(=O)c1cc(O)c(C(=O)c2c(O)cccc2O)c(C=O)c1 [Compound 10]	25.6 µM	
COc1cccc(O)c1C(=O)c1c(O)cc(C(=O)O)cc1C=O [Compound 16]	135 µM	
O=Cc1cc(C(=O)N2CCOCC2)cc(O)c1C(=O)c1c(O)cccc1O [Compound 11]	16.4 µM	
CNC(=O)c1cc(O)c(C(=O)c2c(O)cccc2O)c(C=O)c1 [Compound 6]	21.3 µM	
COc1cc(C(=O)N(C)C)cc(C=O)c1C(=O)c1c(O)cccc1O [Compound 19]	18.3 µM	
COC(=O)c1cc(O)c(C(=O)c2c(O)cccc2O)c(C=O)c1 [Compound 2]	22.1 µM	
CCCCCCNC(=O)c1cc(O)c(C(=O)c2c(O)cccc2O)c(C=O)c1 [Compound 8]	17.6 µM	
O=Cc1cc(C(=O)O)cc(O)c1C(=O)c1c(O)ccc(Cl)c1O [Compound 27]	14.3 µM	
COCOC(=O)c1cc(O)c(C(=O)c2c(O)cccc2O)c(C=O)c1 [Compound 3]	12.4 µM	
COc1cccc(O)c1C(=O)c1c(C=O)cc(C(=O)O)cc1OC [Compound 17]	96.6 µM	
